From US9427455B2, “Use of the pat nanopeptide in the treatment of autoimmune diseases” (CLL PHARMA, priority 2008, dated 2016)

Legend:
Format in all cases: in vivo
[1] = tested on: arthritic rats of OFA (SD) strain; test: Arthritis induced by Freund's adjuvant (Mycobacterium butyricum) in the rat; conditions: for volume of the leg: 5 times per week during 3 weeks, from Day 14 until Day 21, FIG. 4; for hypersensitivity measured by the plantar test: Day 16, equivalent to non-arthritic reference group, FIG. 6; for erythrocyte sedimentation rate (ESR): FIG. 7; for macroscopic clinical score: FIG. 5
Experimental: We used the model of arthritis induced by Freund' adjuvant as described in the article of Milan et al., J Neurosci 1986; 6: 899-906. The rats are administered with Mycobacterium butyricum develop usually a severe polyarthritis which resembles to that in human. Rats of OFA (SD) strain (Oncins France Strain A) weighing approximately 200 g received an […] of a 10 mg/ml Mycobacterium butyricum solution at the articulation of the right ankle. For all the measured parameters, the rats were divided into 5 groups (8 rats/group) in the following way: • reference group: the rats received a paraffin injection instead of the solution of Mycobacterium butyricum (no induced arthritis) then receive an intraperitoneal injection of saline solution; • arthritic group+injection of saline solution; • arthritic group+intraperitoneal injection of 3 mg/kg indomethacin; the indomethacin being a NSAID classically used as reference in this kind of test; • arthritic group+intraperitoneal injection of 0.4 […]; […] The products are administered 5 times per week during 3 weeks. At the beginning of the experimentation (day 0), one determines the initial values for the different parameters (volume of the leg, macroscopic clinical score, sedimentation test and hypersensitivity). During the experiment, several parameters are measured: • the volume of the leg (“paw latency duration”); • the globular sedimentation test (“Erythrocyte Sedimentation rate”); • the macroscopic score: • “0” means that no sign of arthritis was detected; • “1” means that a swelling or an inflammation was detected on a leg; • “2” means that a swelling or an inflammation was detected on two legs; • “3” means that a swelling or an inflammation was detected on at lest 3 legs; • “4” means that a swelling or an inflammation was detected on the 4 legs. • hypersensitivity according to the plantar test: carried out according to Yukinori Nagakura and al, Allodynia and hyperalgesia in adjuvant-induced arthritic rats: time course of progression and efficacy of analgesics, JPET 306: 490-497, 2003, or in Andersen M L and al “Evaluation of acute and chronic treatments with Harpagophytum procumbens one Freund's adjuvant-induced arthritis in rats”. J. Ethnopharmacol. 2004 April; 91 (2-3): 325-30; • the erythrocyte sedimentation rate (ESR): the increase in this one generally accompanies the clinical symptoms met in induced arthritis. The ESR is measured in the arthritic rats (at Day 21) 1 hour and 2 hours after the injection of PAT or indomethacin, according to the protocol of Mahajan S G, et al., Protective Effect of Ethanolic Extract of Seeds of Moringa will oleifera Lam. Against Inflammation Associated with Development of Arthritis in Rats. J. Immunotoxicol. 2007 January; 4 (1): 39-47.

IL-6 = test: Expression of IL-6 in colon by quantitative RT-PCR, TNBS colitis mice; conditions: 25 μg of PAT per mouse; TNBS alone increases around 30 fold; FIG. 3
Experimental: (§1) Colitis is induced in C57BL/6J mice of 7-8 weeks old after TNBS administration per rectal route according to the protocol described by Sugimoto K. et al (Gastroenterology 2002: 123; 1912-1922). The administration is performed directly in the lumen of the colon (over a 3-4 cm length) by using a 1 ml-syringe and a polyethylene cannula (Intradermic PE-20, Becton Dickinson) of a 100 μl solution containing 2.5 mg of TNBS dissolved beforehand in 50 μl of ethanol. After the administration, the mice are maintained 30 seconds in vertical position. […]
(§2) The latter is carried out by denaturation with guanidine thiocyanate; cDNA synthesis is made starting from 1 ng of RNA using a kit (Euromedex). A quantitative PCR is carried out; the reaction is performed in a 25 μl final volume by using SYBR kit (Eurogentec). Stimulation rate is determined for each cytokine compared to reference cDNA which is that corresponding to […] ribosomal phosphoprotein.

IL-1β = test: Expression of IL-1β in colon by quantitative RT-PCR, TNBS colitis mice; conditions: 25 μg of PAT; TNBS alone increases almost 50 fold; FIG. 3
Experimental: as §1, §2

[2] = tested on: C57BL/6J mice with colitis induced by TNBS; test: TNBS-induced experimental colitis in mice (animal weight, colon inflammation); conditions: for effect on animal weight (weight loss induced by TNBS): FIG. 1
Experimental: The PAT nonapeptide was studied in animal model of experimental colitis. In mice, one of the clearly established IBD colitis models is the one in which the induction is performed by the use of trinitrobenzene sulphonic acid (TNBS). TNBS is a hapten which, when it is administered by intrarectal route, induced a severe colonic transmural inflammation; the induced effects present many similarities with those induced by Crohn's disease (Elson C O et al Experimental models of inflammatory bowel disease. Gastroenterology 2003; 10: 1344-67; Strober W et al., The immunology of mucosal models of inflammation. Annu Rev Immunol 2002; 20: 495-49).
Colitis is induced in C57BL/6J mice of 7-8 weeks old after TNBS administration per rectal route according to the protocol described by Sugimoto K. et al (Gastroenterology 2002: 123; 1912-1922). The administration is performed directly in the lumen of the colon (over a 3-4 cm length) by using a 1 ml-syringe and a polyethylene cannula (Intradermic PE-20, Becton Dickinson) of a 100 μl solution containing 2.5 mg of TNBS dissolved beforehand in 50 μl of ethanol. After the administration, the mice are maintained 30 seconds in vertical position.
The design of the study is the following: • one control batch of 5 mice treated by ethanol/PBS mixture (vol/vol): • one test batch of 10 mice to which TNBS is administered (2.5 mg in 50% ethanol); • one test batch of 10 mice to which TNBS and nonapeptide are administered with the amount of 1 μg/mouse; • one test batch of 10 mice to which TNBS and nonapeptide are administered with the amount of 5, μg/mouse; • one batch of 10 mice to which TNBS and nonapeptide are administered with the amount of 25 μg/mouse.
The PAT nonapeptide is administered by intraperitoneal route 30 minutes before the TNBS induction of colitis. Several mice (5 of each test batch; 2 of control batch) are sacrificed at day 1 after TNBS induction. The remaining mice (5 of each test batch; 3 of control batch) are sacrificed at day 3 after TNBS induction.
The animals are weighed every day until the sacrifice.
As soon as the animals are sacrificed, the colon is sampled and a macroscopic analysis is carried out.

IL-10 = test: Expression of IL-10 in colon by quantitative RT-PCR, TNBS colitis mice; conditions: PAT 25 μg/mouse before TNBS; not increased with TNBS alone; FIG. 3
Experimental: as §1, §2

TNF-α = test: Expression of TNF-α in colon by quantitative RT-PCR, TNBS colitis mice; conditions: PAT 25 μg/mouse; TNBS alone increases around 4 fold; FIG. 3
Experimental: as §1, §2

COc1ccc2c(c1)c(CC(=O)O)c(C)n2C(=O)c1ccc(Cl)cc1 [indomethacin, reference compound]
volume of the leg ([1]; indomethacin 3 mg/kg i.p.): notable reduction of inflammation and of the volume of the leg
hypersensitivity measured by the plantar test ([1]; indomethacin 3 mg/kg i.p.): hypersensitivity is very reduced
erythrocyte sedimentation rate (ESR) ([1]; indomethacin 3 mg/kg i.p., Day 21): reduced in a very important way
macroscopic clinical score ([1]; indomethacin 3 mg/kg i.p., compared to arthritic rats given saline solution): significant reduction in the macroscopic score

H EAKSQGGSD-NH2 (H-EAKSQGGSD-NH2) [PAT nonapeptide]
IL-6 expression (IL-6): decreases to a significant extent
IL-1β cytokine expression (IL-1β): decreases to a significant extent
effect on animal weight (weight loss induced by TNBS) ([2]; PAT 1 μg/mouse i.p. 30 minutes before TNBS): do not show a significant effect
effect on animal weight (weight loss induced by TNBS) ([2]; PAT 5 μg/mouse i.p. 30 minutes before TNBS): do not show a significant effect
effect on animal weight (weight loss induced by TNBS) ([2]; PAT 25 μg/mouse i.p. 30 minutes before TNBS): allows to limit this weight loss
colon length, on average ([2]; TNBS-PAT treated mice, control mice 7 cm, TNBS-treated mice 5 cm): 6.5 cm
colon inflammation caused by TNBS rectal injection (macroscopic analysis) ([2]; i.p. 30 minutes before TNBS, dose dependant, maximal effect at 25 μg/mouse, FIG. 2): reduce to a significant extent inflammation
increase of IL-10 anti-inflammatory cytokine level (IL-10): more than 3 fold
progression of arthritis ([1]; PAT 0.4 μg/kg (i.p), leg, peripheral hypersensitivity and ESR): reduce very significantly the progression of arthritis
efficacy compared with indomethacin 3 mg/kg ([1]; PAT 0.4 μg/kg (i.p.), a dose 7500 fold lower than indomethacin): at least a similar efficacy
volume of the leg ([1]; PAT 0.4 μg/kg i.p.): notable reduction of inflammation and of the volume of the leg
hypersensitivity measured by the plantar test ([1]; PAT 0.4 μg/kg i.p.): hypersensitivity is very reduced
erythrocyte sedimentation rate (ESR) ([1]; PAT 0.4 μg/kg i.p., Day 21, 1 hour after the injection, compared to indomethacin group, very similar to reference rats): more reduced ESR
macroscopic clinical score ([1]; PAT 0.4 μg/kg i.p., compared to arthritic rats given saline solution): significant reduction in the macroscopic score
volume of the leg ([1]; PAT 4 μg/kg i.p.): notable reduction of inflammation and of the volume of the leg
hypersensitivity measured by the plantar test ([1]; PAT 4 μg/kg i.p.): hypersensitivity is very reduced
erythrocyte sedimentation rate (ESR) ([1]; PAT 4 μg/kg i.p., Day 21): did not have a significant effect on the reduction of ESR
macroscopic clinical score ([1]; PAT 4 μg/kg i.p., compared with 0.4 μg/kg): shows less effects
TNF-α expression (TNF-α): the increase is notably reduced
